Results reported in US20220401381A1, “PERIPHERALLY ACTING CANNABIDIOL (CBD)-CONTAINING COMPOUNDS AND USES THEREOF FOR ENHANCING FEMALE SEXUAL FUNCTION OR TREATING FEMALE SEXUAL DISORDERS” (Vella Bioscience, Inc., priority 2019, published 2022).
“Also recorded” adds a separate entry of the source.

Columns and labels:
[1] = tested on: rat vaginal smooth muscle tissue (intact/sham rats); assay: EFS-induced contraction of vaginal strips from intact/sham rats, isolated organ bath, isometric tension
Text: (§1) The following in vitro methodology was utilized to examine the concentration-dependent response of rat vaginal tissue, both proximal and distal, to CBD following contraction by electrical field stimulation (similar to efferent neurostimulation in vivo)
(§2) Female rats either intact (n=6) or bilaterally oophorectomized (OVX) (n=6 rats); the animals were euthanized 6 weeks post OVX and vagina dissected. Then, the vagina was cut into 2 halves, proximal and distal, and 4 strips max per region cut in circular direction were prepared and mounted as shown in FIG. 1.
(§3) The strips were excised from the tissue samples and connected to force transducers for isometric tension recording. Organ baths were filled with Krebs buffer maintained at 37° C. and bubbled with 95% O2 and 5% CO2, pH 7.4.
(§4) Female rats without (n=6) prior bilateral oophorectomies were euthanized and the proximal and distal vaginal tissue was harvested and suspended in a classic organ bath infused at a physiological temperature, pH, and oxygen level. […] This was also true regardless of whether the tissue was from the proximal or distal vaginal tissue (FIG. 2(A-E)).

[2] = tested on: rat vaginal smooth muscle tissue (OVX rats); assay: EFS-induced contraction of vaginal strips from oophorectomized (OVX) rats, isolated organ bath, isometric tension
Text: as §1, §2, §3
as §4, with “with” for “without”, “3(A-E)).” for “2(A-E)).”

[3] = subcutaneous injection 45 minutes prior to sexual activity; cited from earlier work

Row | Compound | relaxation (inhibition of EFS-induced contraction) of vaginal strips ([1]; intact/sham (non-oophorectomized) rats, proximal or distal tissue, CBD 1, 10 and 100 μg/ml, EFS 1 Hz to 48 Hz, vs vehicle) | relaxant effect on distal vaginal smooth muscle tissue ([1]; intact/sham rat, distal, FIG. 4B) | relaxant effect on proximal vaginal smooth muscle tissue ([1]; intact/sham rat, proximal, FIG. 4A) | relaxant effect on distal vaginal smooth muscle tissue ([2]; OVX rat, distal, FIG. 5B) | relaxant effect on proximal vaginal smooth muscle tissue ([2]; OVX rat, proximal, FIG. 5A) | relaxation (inhibition of EFS-induced contraction) of vaginal strips ([2]; oophorectomized (OVX) rats, proximal or distal tissue, CBD 1, 10 and 100 μg/ml, EFS 1 Hz to 48 Hz, vs vehicle) | side-effect: nausea, incidence [3] [%]
1 | C=C(C)[C@@H]1CCC(C)=C[C@H]1c1c(O)cc(CCCCC)cc1O [CBD, (−)-trans-cannabidiol] | dramatic and significant dose-response relaxation; also recorded: significant relaxant effect | statistically significant, unexpected, peripheral, dose-dependent pharmacological relaxant effect | statistically significant, unexpected, peripheral, dose-dependent pharmacological relaxant effect | statistically significant, unexpected, peripheral, dose-dependent pharmacological relaxant effect | statistically significant, unexpected, peripheral, dose-dependent pharmacological relaxant effect | dramatic and significant dose-response relaxation; also recorded: significant relaxant effect | 
2 | CCCC[C@H](NC(C)=O)C(=O)N[C@H]1CC(=O)NCCCC[C@@H](C(=O)O)NC(=O)[C@H](Cc2c[nH]c3ccccc23)NC(=O)[C@H](CCCN=C(N)N)NC(=O)[C@@H](Cc2ccccc2)NC(=O)[C@H](Cc2cnc[nH]2)NC1=O [bremelanotide] |  |  |  |  |  |  | 40
